Assay results: patent US20260102407A1, “TREATMENT METHODS” (priority 2020, published 2026)

Legend:
FosB/ΔFosB = experiment: Western blot, IL-1β-inducible FosB/ΔFosB expression in HMEC-1; type: cell-based, human; settings: 30 μM, 20 ng/ml IL-1β up to 4 h
Method: Western blot analysis with extracts of cells treated with IL-13. HMEC-1 (80-90% confluency) were arrested in serum-free MCDB131 medium (Invitrogen, MD) without any growth factor for 48 h. Cells were treated with 30 μM compound in serum-free medium for 4 h, and incubated with 20 ng/ml IL-1β (Sigma, cat. SRE3083) in serum-free medium with the same concentration of compound for up to 4 h, unless otherwise indicated. Total protein was harvested as previously described using RIPA buffer with protease inhibitors. Proteins were resolved on 4-20% (w/v) SDS-polyacrylamide gradient gels and transferred to Immobilon-P PVDF membranes. […] Chemiluminescence was detected using the Western Lightning Chemiluminescence system and ImageQuant™ LAS 4000 biomolecular imager. Band intensity in images generated with the LAS 4000 using the same settings were quantified by NIH ImageJ.

[1] = test system: plasma levels of IL-1β, IL-2, IL-6, IL-4, IL-10; experiment: Collagen antibody-induced arthritis, plasma cytokine levels; type: in vivo, mouse; settings: CAIA mice; 30 mg/kg
pERK = experiment: Immunohistochemical staining of rat retina, pERK; type: in vivo; settings: lasered rat retinas
From the text: Rat choroidal laser injury model. Male Brown Norway pigmented rats (8-14 week-old) were anesthetized by an intramuscular injection of Rompun® (xylazine)/Imalgene® (ketamine). Pupils were dilated by instillation of one drop of 0.5% tropicamide before laser burn. Six burns were created in both eyes on Day 0 by applying 170 mW of 532 nm laser light (Viridis laser, Quantel, France) on 75 μm spots around the optic nerve, between the main retinal vessel branches, for 0.1s, through the slit lamp and contact lens. Production of a bubble at the time of laser application confirmed the rupture of Bruch's membrane. […] After anaesthesia, 10% sodium fluorescein (250 μl/100 g body weight) was injected subcutaneously, and ocular fluorescence was recorded 10 min after dye injection. Fluorescein leakage was evaluated on Days 14 and 21 in the angiograms by two examiners masked to the study groups and graded for fluorescein intensity as follows: score 0: no leakage; 1: slightly stained; 2: moderately stained; 3: strongly stained.
Immunohistochemical staining of rat retina. […] IOD of positive staining (red chromogen) was assessed for CD31, VEGF-A165, pERK, FosB and VCAM-1 using Image-Pro Plus software (Cybernetics, Bethesda, MD). IOD in IPL and INL was quantified for CD31; OPL to OS for VEGF-A165; INL to ONL for pERK; GCL to OS for FosB; OLM for VCAM-1, using Image-Pro Plus. […]

## CCOC(=O)Nc1ccc2c(c1)C(=O)N(CC)c1ccccc1O2 [BT2, (10-ethyl-11-oxo-10,11-dihydro-dibenzo[b,f][1,4]oxazepin-2-yl)-carbamic acid ethyl ester]
FosB/ΔFosB
  IL-1β-inducible FosB/ΔFosB expression (Western blot): inhibited
[1]
  plasma level of IL-1β: reduced plasma levels of IL-1β, IL-2 and IL-6 to normal levels
  plasma level of IL-2: reduced plasma levels of IL-1β, IL-2 and IL-6 to normal levels
  plasma level of IL-4: did not change
  plasma level of IL-6: reduced plasma levels of IL-1β, IL-2 and IL-6 to normal levels
  plasma level of IL-10: did not change
pERK
  inducible pERK staining in the INL, OPL and ONL: suppressed inducible pERK staining
